# US4812442A, “Tripeptide renin inhibitors” (priority 1987, dated 1989)
# Where a name gives a salt, the structure may show the parent alone. Square brackets hold non-standard residues; d marks the D form. Peptide text beside a SMILES is read from it. * marks the point of attachment. Sta = CC(C)C[C@H](N)[C@@H](O)CC(=O)O; Isovaleryl = CC(C)CC(=O)*
# Biological target: T1, renin (Homo sapiens, UniProt P00797)
# T1 sequence (P00797 67-406): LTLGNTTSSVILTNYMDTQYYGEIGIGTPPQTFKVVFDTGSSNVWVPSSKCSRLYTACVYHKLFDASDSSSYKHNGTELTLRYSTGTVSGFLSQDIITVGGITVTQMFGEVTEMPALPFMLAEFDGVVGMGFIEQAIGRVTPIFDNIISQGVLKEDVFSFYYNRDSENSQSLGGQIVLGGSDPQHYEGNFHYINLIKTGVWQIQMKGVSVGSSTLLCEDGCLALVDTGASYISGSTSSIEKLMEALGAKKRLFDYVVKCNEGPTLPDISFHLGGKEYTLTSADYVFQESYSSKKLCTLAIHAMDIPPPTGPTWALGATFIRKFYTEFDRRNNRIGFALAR
# Experiment: Renin inhibition IC50 (methods of J. Med. Chem., 1985, 28, 1789-1790)
# Format: biochemical
# Settings: not given
# From the text: The following examples are intended to be representative and not limiting. IC50 results were obtained according to the methods described in J. Med. Chem., 1985, 28, 1789-1790.
row,Structure (SMILES),IC50 [nM]
1,"CC(C)(C)OC(=O)N[C@@H](Cc1ccccc1)C(=O)N[C@@H](Cc1c[nH]cn1)C(=O)N[C@@H](CC1CCCCC1)[C@@H](O)CC(=O)NC1C[N+]2(C)CCC1CC2 (stereo partly drawn) [Example 2, N^α -t-butoxycarbonyl-L-phenylalanyl-L-histidyl-(3S,4S)-4-amino-5-cyclohexyl-3-hydroxy-pentanoyl-1-methylquinuclidium-3-yl amide acetate]",38
2,"CC(C)(C)OC(=O)N[C@@H](Cc1ccccc1)C(=O)N[C@@H](Cc1c[nH]cn1)C(=O)N[C@@H](CC1CCCCC1)[C@@H](O)CC(=O)NC1C[N+]2(CCCCO)CCC1CC2 (stereo partly drawn) [Example 3, N^α -t-butoxycarbonyl-L-phenylalanyl-L-histidyl(3S,4S)-4-amino-5-cyclohexyl-3-hydroxypentanoyl-1-(4-hydroxybutyl)-quinuclidinium-3-yl amide acetate]",33

# Same assay, conditions: renin inhibition; read-out: IC50
row,Structure (SMILES),IC50 [nM]
1,"CC(C)(C)OC(=O)N[C@@H](Cc1ccccc1)C(=O)N[C@@H](Cc1c[nH]cn1)C(=O)N[C@@H](CC1CCCCC1)[C@@H](O)CC(=O)NC1CN2CCC1CC2 (stereo partly drawn) [Example 1, N^α -t-butoxycarbonyl-L-phenylalanyl-L-histidyl(3S,4S)-4-amino-5-cyclohexyl-3-hydroxypentanoyl-3-quinuclidinyl amide]",33
2,"CC(C)(C)OC(=O)N[C@@H](Cc1ccccc1)C(=O)N[C@@H](Cc1c[nH]cn1)C(=O)N[C@@H](CC1CCCCC1)[C@@H](O)CC(=O)NC1C[N+]2([O-])CCC1CC2 (stereo partly drawn) [Example 4, N^α -t-butoxycarbonyl-L-phenylalanyl-L-histidyl-(3S,4S)-4-amino-5-cyclohexyl-3-hydroxypentanoyl-quinuclidinium-3-yl-1-oxide amide]",20
3,"CC(C)(C)OC(=O)N[C@@H](Cc1ccccc1)C(=O)N[C@@H](Cc1c[nH]cn1)C(=O)N[C@@H](CC1CCCCC1)[C@@H](O)CC(=O)N1CCSCC1 [Example 5, Boc-Phe-His-ACHPA-4-thiamorpholine]",19
4,"CC(C)(C)OC(=O)N[C@@H](Cc1ccccc1)C(=O)N[C@@H](Cc1c[nH]cn1)C(=O)N[C@@H](CC1CCCCC1)[C@@H](O)CC(=O)N1CC[S+]([O-])CC1 [Example 6, Boc-Phe-His-ACHPA-4-thiamorpholine-1-oxide]",67
5,"CC(C)(C)OC(=O)N[C@@H](Cc1ccccc1)C(=O)N[C@@H](Cc1c[nH]cn1)C(=O)N[C@@H](CC1CCCCC1)[C@@H](O)CC(=O)N1CCS(=O)(=O)CC1 [Example 7, Boc-Phe-His-ACHPA-4-thiamorpholine-1,1-dioxide]",55
6,"CC[C@H](C)NC(=O)C[C@H](O)[C@H](CC1CCCCC1)NC(=O)[C@H](Cc1c[nH]cn1)NC(=O)[C@H](Cc1ccccc1)NC(=O)OC(C)(C)C [Example 9, N^α -t-butoxycarbonyl-L-phenylalanyl-L-histidyl(3S,4S)-4-amino-5-cyclohexyl-3-hydroxypentanoyl-2S-(+)-butyl amide]",32
7,CC[C@H](C)[C@@H](CN)NC(=O)C[C@H](O)[C@H](CC1CCCCC1)NC(=O)[C@H](Cc1c[nH]cn1)NC(=O)[C@H](Cc1ccccc1)NC(=O)OC(C)(C)C [Example 11],33
8,CC[C@H](C)[C@@H](CN(C)C)NC(=O)C[C@H](O)[C@H](CC1CCCCC1)NC(=O)[C@H](Cc1c[nH]cn1)NC(=O)[C@H](Cc1ccccc1)NC(=O)OC(C)(C)C [Example 12],5
9,CC(C)C[C@H](NC(=O)[C@H](Cc1ccccc1)NC(=O)[C@H](Cc1ccccc1)NC(=O)OC(C)(C)C)[C@@H](O)CC(=O)N1CCN(c2cccc[n+]2[O-])CC1 [Example 17],2000
10,"CC[C@H](C)[C@@H](C[N+](C)(C)C)NC(=O)C[C@H](O)[C@H](CC1CCCCC1)NC(=O)[C@H](Cc1c[nH]cn1)NC(=O)[C@H](Cc1ccccc1)NC(=O)OC(C)(C)C [Example 18, di-acetate salt]",15
11,"CC[C@H](C)[C@@H](C[N+](C)(C)CCO)NC(=O)C[C@H](O)[C@H](CC1CCCCC1)NC(=O)[C@H](Cc1c[nH]cn1)NC(=O)[C@H](Cc1ccccc1)NC(=O)OC(C)(C)C [Example 19, acetate salt]",10

# System: nephrectomized rats
# Experiment: not given
# Settings: after the injection of hog renin into nephrectomized rats; cited from earlier work
row,Structure (SMILES),effect on blood pressure in vivo
1,CC(C)CC(=O)N[C@H](C(=O)N[C@H](C(=O)N[C@@H](CC(C)C)[C@@H](O)CC(=O)N[C@@H](C)C(=O)N[C@@H](CC(C)C)[C@@H](O)CC(=O)O)C(C)C)C(C)C [pepstatin] (Isovaleryl-VV[Sta]A[Sta]-OH),reduces blood pressure
